Literature values, collected in patent publication US20210113536A1, “METHODS AND COMPOSITIONS FOR DETECTING AND TREATING VENOUS THROMBOEMBOLISM” (United States Government As Represented By The Department …, priority 2019, published 2021).

Test system: asymptomatic participants
Settings: 20 mg of rosuvastatin, JUPITER trial

## CC(C)c1nc(N(C)S(C)(=O)=O)nc(-c2ccc(F)cc2)c1/C=C/[C@@H](O)C[C@@H](O)CC(=O)O [rosuvastatin]
  occurrence of symptomatic VTE: reduced occurrence of symptomatic VTE
